Assays:
[1] = target: T1, Angiotensin-converting enzyme 2 (Homo sapiens, UniProt Q9BYF1); assay: Inhibition of ACE2
[2] = target: T1, Angiotensin-converting enzyme 2; assay: Inhibition of human recombinant ACE2 by fluorescence assay; details: read-out: Ki app
[3] = target: Angiotensin-converting enzyme (Homo sapiens, UniProt P12821); assay: Inhibition of human recombinant ACE by fluorescence assay; details: read-out: Ki app
[4] = target: T2, Carboxypeptidase A1 (Homo sapiens, UniProt P15085); assay: Inhibition of human recombinant CpA by fluorescence assay; details: read-out: Ki app
T2 sequence (P15085 whole entry): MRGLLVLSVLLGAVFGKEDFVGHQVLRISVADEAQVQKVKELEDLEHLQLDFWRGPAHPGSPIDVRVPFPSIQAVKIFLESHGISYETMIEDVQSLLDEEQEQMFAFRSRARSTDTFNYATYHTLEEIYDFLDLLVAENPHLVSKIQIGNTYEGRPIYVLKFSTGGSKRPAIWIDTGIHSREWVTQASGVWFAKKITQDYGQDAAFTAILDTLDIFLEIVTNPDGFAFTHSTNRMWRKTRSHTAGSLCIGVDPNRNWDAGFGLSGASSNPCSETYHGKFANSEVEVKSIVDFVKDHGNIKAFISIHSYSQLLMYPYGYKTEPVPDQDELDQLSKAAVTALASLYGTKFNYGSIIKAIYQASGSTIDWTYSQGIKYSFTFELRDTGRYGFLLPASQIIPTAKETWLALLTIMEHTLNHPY

[5] = target: Neprilysin (Homo sapiens, UniProt P08473); assay: Inhibition of human recombinant NEP by fluorescence assay; details: read-out: Ki app
Chain of Neprilysin (P08473 whole entry): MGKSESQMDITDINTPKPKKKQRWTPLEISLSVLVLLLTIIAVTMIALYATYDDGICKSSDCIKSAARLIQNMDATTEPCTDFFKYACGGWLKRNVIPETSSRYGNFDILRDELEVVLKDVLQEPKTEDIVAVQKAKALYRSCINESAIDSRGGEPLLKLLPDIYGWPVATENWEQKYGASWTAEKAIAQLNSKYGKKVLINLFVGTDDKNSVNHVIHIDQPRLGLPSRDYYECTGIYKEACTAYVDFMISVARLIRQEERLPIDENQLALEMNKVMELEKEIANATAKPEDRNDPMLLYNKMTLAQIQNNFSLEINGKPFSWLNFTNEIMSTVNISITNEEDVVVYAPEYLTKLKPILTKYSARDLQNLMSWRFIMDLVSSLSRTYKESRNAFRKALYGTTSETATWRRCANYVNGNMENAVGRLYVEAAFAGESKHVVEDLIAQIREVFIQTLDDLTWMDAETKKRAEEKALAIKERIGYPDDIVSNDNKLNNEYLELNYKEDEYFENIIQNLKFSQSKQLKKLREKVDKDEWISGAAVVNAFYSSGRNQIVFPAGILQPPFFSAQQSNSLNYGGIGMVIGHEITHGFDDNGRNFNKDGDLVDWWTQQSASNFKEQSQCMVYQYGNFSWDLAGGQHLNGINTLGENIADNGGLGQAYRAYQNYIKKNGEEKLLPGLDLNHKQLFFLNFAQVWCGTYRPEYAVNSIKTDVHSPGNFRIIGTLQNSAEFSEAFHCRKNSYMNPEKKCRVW

[6] = species on record: Homo sapiens; assay: Selectivity for human recombinant ACE2 over human recombinant NEP
[7] = species on record: Homo sapiens; assay: Selectivity for human recombinant ACE2 over human recombinant CpA
[8] = species on record: Homo sapiens; assay: Selectivity for human recombinant ACE2 over human recombinant ACE

Chain of Angiotensin-converting enzyme (P12821 whole entry): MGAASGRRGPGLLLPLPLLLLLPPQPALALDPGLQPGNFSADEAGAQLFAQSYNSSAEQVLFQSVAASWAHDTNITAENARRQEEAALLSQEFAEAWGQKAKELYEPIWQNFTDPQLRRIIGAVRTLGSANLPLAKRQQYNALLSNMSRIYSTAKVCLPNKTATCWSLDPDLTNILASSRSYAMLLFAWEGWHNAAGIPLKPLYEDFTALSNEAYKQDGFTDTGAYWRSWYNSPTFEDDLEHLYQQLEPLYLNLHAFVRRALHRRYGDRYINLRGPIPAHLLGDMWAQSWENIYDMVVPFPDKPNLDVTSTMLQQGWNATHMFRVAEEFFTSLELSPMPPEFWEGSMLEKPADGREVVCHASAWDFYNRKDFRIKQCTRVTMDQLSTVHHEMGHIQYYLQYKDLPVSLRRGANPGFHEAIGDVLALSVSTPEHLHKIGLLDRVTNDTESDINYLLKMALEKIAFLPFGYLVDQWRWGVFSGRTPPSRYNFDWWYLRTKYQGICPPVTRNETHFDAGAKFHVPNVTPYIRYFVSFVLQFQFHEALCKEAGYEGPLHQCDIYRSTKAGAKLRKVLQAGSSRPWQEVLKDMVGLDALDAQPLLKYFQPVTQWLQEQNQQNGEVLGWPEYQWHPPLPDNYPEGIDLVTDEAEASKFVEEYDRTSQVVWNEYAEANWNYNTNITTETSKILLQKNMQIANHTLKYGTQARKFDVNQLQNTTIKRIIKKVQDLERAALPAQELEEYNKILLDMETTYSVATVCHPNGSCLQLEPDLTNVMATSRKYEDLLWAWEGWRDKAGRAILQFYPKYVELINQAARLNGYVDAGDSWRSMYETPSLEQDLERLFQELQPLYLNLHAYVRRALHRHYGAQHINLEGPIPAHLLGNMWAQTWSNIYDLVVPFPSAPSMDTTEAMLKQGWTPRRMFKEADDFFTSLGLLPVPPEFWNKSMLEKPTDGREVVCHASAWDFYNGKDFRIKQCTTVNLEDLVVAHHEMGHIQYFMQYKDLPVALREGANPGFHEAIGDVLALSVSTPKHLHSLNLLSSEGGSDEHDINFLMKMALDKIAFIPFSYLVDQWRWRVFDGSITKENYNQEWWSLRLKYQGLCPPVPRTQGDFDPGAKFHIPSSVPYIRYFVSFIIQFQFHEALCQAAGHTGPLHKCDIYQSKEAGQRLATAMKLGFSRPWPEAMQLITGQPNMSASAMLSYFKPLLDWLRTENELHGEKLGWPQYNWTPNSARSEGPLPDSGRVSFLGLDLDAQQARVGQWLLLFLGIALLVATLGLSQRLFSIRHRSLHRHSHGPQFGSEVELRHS
T1 sequence (Q9BYF1 whole entry): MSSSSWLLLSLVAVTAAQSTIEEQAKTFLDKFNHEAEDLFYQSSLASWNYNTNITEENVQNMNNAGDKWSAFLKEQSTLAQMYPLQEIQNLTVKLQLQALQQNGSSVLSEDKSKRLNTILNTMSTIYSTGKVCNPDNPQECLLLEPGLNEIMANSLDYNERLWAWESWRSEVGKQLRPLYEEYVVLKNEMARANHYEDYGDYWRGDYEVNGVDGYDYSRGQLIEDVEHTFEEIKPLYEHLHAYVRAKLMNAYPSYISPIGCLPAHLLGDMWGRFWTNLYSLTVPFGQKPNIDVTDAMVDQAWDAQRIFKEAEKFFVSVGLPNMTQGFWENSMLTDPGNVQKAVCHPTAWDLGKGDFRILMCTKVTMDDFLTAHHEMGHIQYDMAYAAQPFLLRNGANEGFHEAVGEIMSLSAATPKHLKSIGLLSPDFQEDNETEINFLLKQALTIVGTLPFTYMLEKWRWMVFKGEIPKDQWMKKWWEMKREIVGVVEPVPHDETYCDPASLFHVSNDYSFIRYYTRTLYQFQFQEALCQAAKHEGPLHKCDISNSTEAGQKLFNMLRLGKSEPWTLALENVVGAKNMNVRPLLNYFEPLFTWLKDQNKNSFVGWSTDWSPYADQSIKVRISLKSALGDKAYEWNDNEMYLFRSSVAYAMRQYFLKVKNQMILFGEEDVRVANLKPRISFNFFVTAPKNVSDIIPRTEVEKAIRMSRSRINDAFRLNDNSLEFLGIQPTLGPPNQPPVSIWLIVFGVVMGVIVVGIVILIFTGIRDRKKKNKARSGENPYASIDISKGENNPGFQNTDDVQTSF

Row | SMILES | IC50 [1] | Ki [2] | Ki [3] | Ki [4] | Ki [5] | Selectivity ratio [6] | Selectivity ratio [7] | Selectivity ratio [8]
1 | CC(=O)NCC(=O)N[C@@H](CC(=O)O)C(=O)N[C@@H](Cc1ccc(O)cc1)C(=O)N[C@@H](CO)C(=O)N[C@@H](Cc1cnc[nH]1)C(=O)N[C@H]1CSSC[C@@H](C(=O)N[C@H](C(=O)N[C@@H](Cc2ccc(O)cc2)C(=O)N2CCC[C@H]2C(=O)N[C@@H](CC(=O)O)C(=O)N2CCC[C@H]2C(=O)N[C@@H](CCC(=O)O)C(=O)NCC(=O)NCC(=O)NCC(N)=O)[C@@H](C)O)NC(=O)[C@H](CCCCN)NC(=O)[C@H](Cc2c[nH]c3ccccc23)NC(=O)[C@H](Cc2c[nH]c3ccccc23)NC(=O)[C@@H]2CCCN2C(=O)[C@H](Cc2ccc(O)cc2)NC(=O)[C@H](Cc2ccc(O)cc2)NC(=O)[C@H](CCCNC(=N)N)NC(=O)[C@H](CC(C)C)NC(=O)[C@@H]2CCCN2C(=O)[C@H](CO)NC1=O | 10 nM |  |  |  |  |  |  | 
2 | CC[C@@H](C)[C@H](S)C(=O)N[C@@H](Cc1ccccc1)C(=O)O |  | 1.5 nM | 570 nM | 530 nM | 35 nM |  |  | 
3 | CC[C@@H](C)[C@H](S)C(=O)N[C@@H](Cc1cccc(-c2ccccc2)c1)C(=O)O |  | 2.2 nM | 1000 nM | 5000 nM | 19 nM |  |  | 
4 | CC[C@@H](C)[C@H](S)C(=O)N[C@@H](Cc1ccccc1OCc1ccccc1)C(=O)O |  | 6 nM | 770 nM | 1600 nM | 120 nM | 20 |  | 
5 | CC[C@@H](C)[C@H](S)C(=O)N[C@@H](Cc1ccccc1Oc1ccccc1)C(=O)O |  | 0.9 nM | 5000 nM | 2300 nM | 180 nM | 200 |  | 
6 | CC[C@@H](C)[C@H](S)C(=O)N[C@@H](Cc1cccc2ccccc12)C(=O)O |  | 2.2 nM | 1800 nM | 3600 nM | 12 nM |  | > 100 | > 100
7 | CC[C@@H](C)[C@H](S)C(=O)N[C@@H](Cc1ccc(OCc2ccccc2)cc1)C(=O)O |  | 2.7 nM | 570 nM | 4600 nM | 300 nM | 110 |  | 
8 | CC[C@@H](C)[C@H](S)C(=O)N[C@@H](Cc1cccc(Oc2ccccc2)c1)C(=O)O |  | 5.8 nM | 1100 nM | 14000 nM | 79 nM |  |  | 
9 | CC[C@@H](C)[C@H](S)C(=O)N[C@@H](Cc1ccc(O)cc1)C(=O)O |  | 1.3 nM | 410 nM | 350 nM | 75 nM |  |  | 
10 | CC[C@@H](C)[C@H](S)C(=O)N[C@@H](Cc1ccc(OCc2cc(C(F)(F)F)cc(C(F)(F)F)c2)cc1)C(=O)O |  | 84 nM | 25000 nM | 11000 nM | 11000 nM |  |  | 
11 | CC[C@@H](C)[C@H](S)C(=O)N[C@@H](Cc1ccc2ccccc2c1)C(=O)O |  | 2.4 nM | 310 nM | 7200 nM | 46 nM |  | > 100 | > 100
12 | CC[C@@H](C)[C@H](S)C(=O)N[C@@H](Cc1cccc(OCc2ccccc2)c1)C(=O)O |  | 2.4 nM | 750 nM | 5000 nM | 37 nM | 15 |  | 
13 | CC[C@@H](C)[C@H](S)C(=O)N[C@@H](Cc1ccccc1-c1ccccc1)C(=O)O |  | 37 nM | 20000 nM | 9900 nM | 190 nM |  |  | 
14 | CC[C@@H](C)[C@H](S)C(=O)N[C@@H](Cc1ccc(Oc2ccccc2)cc1)C(=O)O |  | 2.2 nM | 250 nM | 8900 nM | 10 nM |  |  | > 100
15 | CC[C@@H](C)[C@H](S)C(=O)NCC(=O)O |  | 90 nM | 250 nM | 35000 nM | 5100 nM |  |  | 
16 | CC[C@@H](C)[C@H](S)C(=O)N[C@@H](C)C(=O)O |  | 14 nM | 180 nM | 11000 nM | 950 nM |  |  | 
17 | CC[C@@H](C)[C@H](S)C(=O)N[C@@H](Cc1ccc(OCc2ccc(F)c(F)c2)cc1)C(=O)O |  | 0.85 nM | 1800 nM | 3300 nM | 640 nM |  | > 750 | > 750
18 | NCCNCCN1CC1 | 57000 nM |  |  |  |  |  |  | 
19 | CC[C@@H](C)[C@H](S)C(=O)N[C@@H](Cc1ccc(OCc2ccc(F)cc2)cc1)C(=O)O |  | 2.5 nM | 4000 nM | 16000 nM | 180 nM |  |  | 
20 | CC[C@@H](C)[C@H](S)C(=O)N[C@@H](Cc1ccc(OCc2ccc(F)cc2F)cc1)C(=O)O |  | 2 nM | 950 nM | 1900 nM | 75 nM |  |  | 
21 | CC[C@@H](C)[C@H](S)C(=O)N[C@@H](Cc1ccc(OCc2ccc(C(F)(F)F)cc2)cc1)C(=O)O |  | 35 nM | 2600 nM | 4600 nM | 1500 nM |  |  | 
